# Measured values: patent publication US20240376138A1, “Crystal Forms, Preparation Method And Application Of Aryl Phosphine Oxide Compound” (Chengdu Di'Ao Jiuhong Pharmaceutical Factory, priority 2021, published 2024)
# Marks after values point to notes of the source that are not given here.
# Columns and labels:
# [1] = Stability test 1: open solvent atmosphere, XRPD; type: physicochemical; conditions: room temperature
# [2] = Stability test 2: different temperature and humidity conditions, XRPD; type: physicochemical
# [3] = High temperature and illumination stability test of crystal forms 1-3; type: physicochemical
# Description: The stabilities of crystal form 2 and crystal form 3 under high temperature, illumination and long-term conditions were investigated.
# [4] = Comparative experiment of hygroscopicity (Chinese Pharmacopoeia 2020); type: physicochemical; conditions: dihydrate
# Description: The description of hygroscopic characteristics and the definition of hygroscopic weight gain are as follows: • Deliquescence: absorbs sufficient amount of water to form a liquid; • Very hygroscopic: the weight gain by hygroscopy is not less than 15%; • Hygroscopic: the weight gain by hygroscopy is less than 15% but not less than 2%; • Slightly hygroscopic: the weight gain by hygroscopy is less than 2% but not less than 0.2%; and
# Not or almost not hygroscopic: the weight gain by hygroscopy is less than 0.2% from hygroscopicity.
# [5] = High temperature and illumination stability test of crystal forms 1-3; type: physicochemical; conditions: Illumination (illuminance: 5000Lx), Day 0 (Table 18-1)
# [6] = Variable temperature XRPD of crystal form 1; type: physicochemical
# Method: The crystalline form 1 was tested on a hot-stage XRPD detection instrument to test the XRPD patterns under different temperature conditions, as shown in FIG. 8.
# [7] = system: BaF3 EML-4-ALK-L1196M xenograft tumor; assay: Pharmacodynamic experiment in vivo, subcutaneous xenograft model; parameters: species or system BALB/c nude mouse
# Method: The model used in this trial was an engineered BALB/c nude mouse subcutaneous xenograft model of BaF3 EML-4-ALK-L1196M cells. Suspension culture of engineered BaF3 cells were carried out in vitro. […] Cell passage was processed twice a week. When the number of cells reached the requirement, the cells were collected, counted, diluted into a tumor cell suspension with a concentration of 1×10^7/ml with PBS, and carried to the animal room in an ice box for direct injection and inoculation. A 1 mL syringe was used to take the above-mentioned prepared tumor cell suspension with a concentration of 1×10^7/ml, and the tumor cell suspension was injected subcutaneously into the left forelimb armpit of the dorsal side of the mouse, 0.25 mL for each inoculation site. When the average volume of tumors reached about 160 mm^3, the drug was administered for each group, 15 mice in the vehicle group and 10 mice in each of the other administration groups.
# Mode and frequency of administration: oral gavage administration, the volume of administration was 10 mL/kg, and the model group was given an equal volume of vehicle. It was administered 1 time a day for 14 consecutive days.
# The mental, active, eating and other general conditions of the mice were observed every day, and the body weight was measured 3 times a week, and the short diameter (a) and long diameter (b) of the tumor of each mouse were measured with vernier calipers 3 times a week, and the tumor volume was calculated according to the formula (a^2×b)/2. The relative tumor volume (RTV) was calculated from the measured calculated tumor volume, RTV=Vt/V0. Wherein V0 was the tumor volume at randomization (i.e., d0) and Vt was the tumor volume at each measurement (i.e., dn). The relative tumor proliferation rate of anti-tumor activity evaluation index was calculated according to the following formula: relative tumor proliferation rate T/C (%): […]
# (Note: TRTV: RTV in the treatment group; CRTV: RTV in the model control group. According to the evaluation criteria for efficacy in the “Technical Guidelines for Non-clinical Research of Cytotoxic Antitumor Drugs” issued by the National Medical Products Administration of China, T/C %≤40% is effective).
# [8] = Stability test 3: long-term and accelerated conditions; type: physicochemical
# [9] = Vacuum drying stability test; type: physicochemical
# [10] = High temperature (50° C.), Day 10, dihydrate
# [11] = High temperature (50° C.), Day 30, dihydrate
# [12] = Illumination (illuminance: 5000Lx), Day 10, dihydrate
# [13] = Illumination (illuminance: 5000Lx), Day 30, dihydrate
# [14] = 30 mg/kg oral gavage 1 time a day, Day 3
# [15] = 30 mg/kg oral gavage 1 time a day, Day 5
# [16] = 30 mg/kg oral gavage 1 time a day, Day 7
# [17] = 30 mg/kg oral gavage 1 time a day, Day 10
# [18] = 30 mg/kg oral gavage 1 time a day, Day 12
# [19] = 30 mg/kg oral gavage 1 time a day, Day 14
# [20] = 30 mg/kg oral gavage once a day, D14
# [21] = 40 mg/kg oral gavage 1 time a day, Day 3
# [22] = 40 mg/kg oral gavage 1 time a day, Day 5
# [23] = 40 mg/kg oral gavage 1 time a day, Day 7
# [24] = 40 mg/kg oral gavage 1 time a day, Day 10
# [25] = 40 mg/kg oral gavage 1 time a day, Day 12
# [26] = 40 mg/kg oral gavage 1 time a day, Day 14
# [27] = 40 mg/kg oral gavage once a day, D14
# [28] = 6 months under long-term and accelerated conditions
compound,measurement,setting,value
"COc1cc(N2CCC(N3CCN(C)CC3)CC2)c(C)cc1Nc1ncc(Br)c(Nc2ccc(C)cc2P(C)(C)=O)n1 [Crystal form 1, (2-((5-bromo-2-((2-methoxy-5-methyl-4-(4-(4-methylpiperazin-1-yl)piperidin-1-yl)phenyl)amino)pyrimidin-4-yl)amino)-5-methylphenyl)dimethylphosphorus oxide dihydrate]",Analysis of result (XRPD) Day 4,[1]; Acetone atmosphere,Crystal form 1
same,Analysis of result (XRPD) Day 6,[1]; Acetone atmosphere,Crystal form 1
same,Analysis of result (XRPD) Day 4,[1]; Ethanol atmosphere,Crystal form 1
same,Analysis of result (XRPD) Day 6,[1]; Ethanol atmosphere,Crystal form 1
same,Analysis of result (XRPD) Day 4,[1]; Ethyl acetate atmosphere,Crystal form 1
same,Analysis of result (XRPD) Day 6,[1]; Ethyl acetate atmosphere,Crystal form 1
same,Analysis of result (XRPD) Day 4,[1]; Tetrahydrofuran atmosphere,Crystal form 1
same,Analysis of result (XRPD) Day 6,[1]; Tetrahydrofuran atmosphere,Crystal form 1
same,Analysis of result of Day 4 (XRPD),[2]; 25° C.-60% RH,Crystal form 1
same,Analysis of result of Day 6 (XRPD),[2]; 25° C.-60% RH,Crystal form 1
same,Analysis of result of Day 11 (XRPD),[2]; 25° C.-60% RH,Crystal form 1
same,Analysis of result of Day 4 (XRPD),[2]; 40° C.-75% RH,Crystal form 1
same,Analysis of result of Day 6 (XRPD),[2]; 40° C.-75% RH,Crystal form 1
same,Analysis of result of Day 11 (XRPD),[2]; 40° C.-75% RH,Crystal form 1
same,Analysis of result of Day 4 (XRPD),[2]; RT-12% RH,Crystal form 1
same,Analysis of result of Day 6 (XRPD),[2]; RT-12% RH,Crystal form 1
same,Analysis of result of Day 11 (XRPD),[2]; RT-12% RH,Crystal form 1
same,Analysis of result of Day 4 (XRPD),[2]; RT-58% RH,Crystal form 1
same,Analysis of result of Day 6 (XRPD),[2]; RT-58% RH,Crystal form 1
same,Analysis of result of Day 11 (XRPD),[2]; RT-58% RH,Crystal form 1
same,Analysis of result of Day 4 (XRPD),[2]; RT-97% RH,Crystal form 1
same,Analysis of result of Day 6 (XRPD),[2]; RT-97% RH,Crystal form 1
same,Analysis of result of Day 11 (XRPD),[2]; RT-97% RH,Crystal form 1
same,Traits,"[3]; Day 0, dihydrate",off-white
same,purity,"[3]; Day 0, dihydrate",purity: 99.66%
same,total impurities,"[3]; Day 0, dihydrate",impurities: 0.34%
same,the number of impurities above the reporting limit,"[3]; Day 0, reporting limit per ICHQ3B",limit is 4 total
same,Traits,[3]; [10],off-white
same,purity,[3]; [10],purity: 99.65%;
same,the number of impurities above the reporting limit,[3]; [10],limit is 5; total
same,total impurities,[3]; [10],impurities: 0.35%
same,Traits,[3]; [11],off-white
same,purity,[3]; [11],purity: 99.53%;
same,the number of impurities above the reporting limit,[3]; [11],limit is 6; total
same,total impurities,[3]; [11],impurities: 0.47%
same,Traits,"[3]; Illumination (illuminance: 5000Lx), Day 10 (Table 18-1), dihydrate",off-white
same,Traits,[3]; [12],off-white
same,purity,[3]; [12],purity: 99.65%;
same,the number of impurities above the reporting limit,[3]; [12],limit is 5; total
same,total impurities,[3]; [12],impurities: 0.35%
same,Traits,[3]; [13],off-white
same,purity,[3]; [13],purity: 99.60%;
same,the number of impurities above the reporting limit,[3]; [13],limit is 6; total
same,total impurities,[3]; [13],impurities: 0.40%
same,Hygroscopicity,[4]; class by weight gain after 24 h,Not or almost not hygroscopic (the weight gain by hygroscopy is less than 0.2% from hygroscopicity)
same,Weight gain % after 24 h,"[4]; hygroscopicity test, 24 h",0.16%
same,Traits,[5],off-white
same,crystal form on hot-stage XRPD,[6]; 50° C.,remained unchanged
same,crystal form on hot-stage XRPD,[6]; 80° C. and 120° C.,lost two moles of crystal water
same,Tumor volume,"[7]; 30 mg/kg oral gavage 1 time a day, Day 0",160 mm^3
same,Relative tumor proliferation rate T/C,[7]; [14],28.53▴▴ %
same,Tumor volume,[7]; [14],102 mm^3
same,Relative tumor proliferation rate T/C,[7]; [15],16.41▴▴ %
same,Tumor volume,[7]; [15],89 mm^3
same,Relative tumor proliferation rate T/C,[7]; [16],8.23▴▴ %
same,Tumor volume,[7]; [16],75 mm^3
same,Relative tumor proliferation rate T/C,[7]; [17],6.61▴▴ %
same,Tumor volume,[7]; [17],91 mm^3
same,Relative tumor proliferation rate T/C,[7]; [18],6.34▴▴ %
same,Tumor volume,[7]; [18],109 mm^3
same,Relative tumor proliferation rate T/C,[7]; [19],4.85▴▴ %
same,Tumor volume,[7]; [19],101 mm^3
same,Tumor volume,[7]; [20],101 mm^3
same,relative tumor proliferation rate T/C %,[7]; [20],4.85%
same,Tumor volume,"[7]; 40 mg/kg oral gavage 1 time a day, Day 0",159 mm^3
same,Relative tumor proliferation rate T/C,[7]; [21],23.88▴▴ %
same,Tumor volume,[7]; [21],83 mm^3
same,Relative tumor proliferation rate T/C,[7]; [22],10.09▴▴ %
same,Tumor volume,[7]; [22],52 mm^3
same,Relative tumor proliferation rate T/C,[7]; [23],5.93▴▴ %
same,Tumor volume,[7]; [23],49 mm^3
same,Relative tumor proliferation rate T/C,[7]; [24],4.45▴▴ %
same,Tumor volume,[7]; [24],60 mm^3
same,Relative tumor proliferation rate T/C,[7]; [25],3.28▴▴ %
same,Tumor volume,[7]; [25],55 mm^3
same,Relative tumor proliferation rate T/C,[7]; [26],2.34▴▴ %
same,Tumor volume,[7]; [26],49 mm^3
same,Tumor volume,[7]; [27],49 mm^3
same,relative tumor proliferation rate T/C %,[7]; [27],2.34%
same,effect on the growth of BaF3 EML-4-ALK-L1196M xenograft tumor,"[7]; oral gavage once a day for 14 days, crystal form 1 30 and 40 mg/kg, compound 1 of WO2021073498A1 30.2 and 40.2 mg/kg",significantly inhibit the growth
same,maximum single impurity,[8]; [28],≤ 0.07%
same,total impurities after 6 months of placement compared with Day 0,[8]; [28],had not increased
same,Traits,"[8]; Acceleration (40° C. ± 2° C., 75% RH ± 10% RH), Day 0",off-white
same,Traits,"[8]; Acceleration (40° C. ± 2° C., 75% RH ± 10% RH), Month 6",off-white
same,Crystal form (XRPD),"[8]; Acceleration (40° C. ± 2° C., 75% RH ± 10% RH, exposed to air and away from light), Day 0",form 1
same,Crystal form (XRPD),"[8]; Acceleration (40° C. ± 2° C., 75% RH ± 10% RH, exposed to air and away from light), Day 10",form 1
same,Crystal form (XRPD),"[8]; Acceleration (40° C. ± 2° C., 75% RH ± 10% RH, exposed to air and away from light), Month 6",form 1
same,Traits,"[8]; Long-term (25° C. ± 2° C., 65% RH ± 10% RH), Day 0, dihydrate",off-white
same,Traits,"[8]; Long-term (25° C. ± 2° C., 65% RH ± 10% RH), Month 6",off-white
same,Crystal form (XRPD),"[8]; Long-term (25° C. ± 2° C., 65% RH ± 10% RH, exposed to air and away from light), Day 0",form 1
same,Crystal form (XRPD),"[8]; Long-term (25° C. ± 2° C., 65% RH ± 10% RH, exposed to air and away from light), Day 10",form 1
same,Crystal form (XRPD),"[8]; Long-term (25° C. ± 2° C., 65% RH ± 10% RH, exposed to air and away from light), Month 6",form 1
same,crystal form after vacuum drying,[9]; vacuum dried at 35° C.,had not been transformed
same,moisture content after vacuum drying,[9]; vacuum drying at 35° C. for 24 h,5.26%
